In US20240294533A1, “2-(HET)ARYL-SUBSTITUTED CONDENSED HETEROCYCLE DERIVATIVES AS PEST CONTROL AGENTS” (Bayer Aktiengesellschaft, priority 2021, published 2024):
Read-outs that look alike come from different tables or passages of the source.

Legend:
[1] = tested on: Diabrotica balteata; experiment: Diabrotica balteata spray test; assay type: in vivo; conditions: wheat grains, after 7 days; for pest or weed control at 100 g/ha / pest or weed control at 125 g/ha: Diabrotica balteata, 168 h, read-out: efficacy; for pest or weed control at 125 g/ha: 125 g/ha (=40 μg/cavity)
Description: Diabrotica balteata—Spray Test Solvent: 78 parts by weight of acetone • • 1.5 parts by weight of dimethylformamide Emulsifier: alkylaryl polyglycol ether An appropriate active ingredient formulation is produced by dissolving 1 part by weight of active ingredient with the stated parts by weight of solvent and making the solution up to the desired concentration with water containing an emulsifier concentration of 1000 ppm. Further test concentrations are produced by diluting the formulation with emulsifier-containing water. Pre-swollen wheat grains (Triticum aestivum) are incubated in a multiwell plate filled with agar and a little water for one day (5 seed grains per cavity). The germinated wheat grains are sprayed with an active ingredient formulation of the desired concentration. Subsequently, each cavity is infected with 10-20 beetle larvae of Diabrotica balteata. After 7 days, efficacy in % is determined. 100% means that all wheat plants have grown as in the untreated, uninfected control; 0% means that no wheat plant has grown.

[2] = tested on: Meloidogyne incognita; experiment: Meloidogyne incognita test; assay type: in vivo; conditions: lettuce, gall formation after 14 days; for pest or weed control at 20 ppm: Meloidogyne incognita, 336 h, read-out: nematicidal efficacy
Description: Meloidogyne incognita Test Solvent: 125.0 parts by weight of acetone An appropriate active ingredient formulation is produced by mixing 1 part by weight of active ingredient with the stated amount of solvent and diluting the concentrate to the desired concentration with water. Vessels are filled with sand, active ingredient solution, an egg/larvae suspension of the southern root-knot nematode (Meloidogyne incognita) and lettuce seeds. The lettuce seeds germinate and the plants develop. The galls develop on the roots. After 14 days, the nematicidal efficacy in % is determined by the formation of galls. 100% means that no galls were found; 0% means that the number of galls on the treated plants corresponds to the untreated control.

[3] = tested on: Spodoptera frugiperda; experiment: Spodoptera frugiperda spray test (maize leaf discs); assay type: in vivo; conditions: after 7 days; for pest or weed control at 100 g/ha: Spodoptera frugiperda, foliar, 168 h, read-out: efficacy
Description: Spodoptera Frusiperda—Spray Test Solvent: 78.0 parts by weight of acetone • • 1.5 parts by weight of dimethylformamide Emulsifier: alkylaryl polyglycol ether An appropriate active ingredient formulation is produced by dissolving 1 part by weight of active ingredient with the stated parts by weight of solvent and making the solution up to the desired concentration with water containing an emulsifier concentration of 1000 ppm. Further test concentrations are produced by diluting the formulation with emulsifier-containing water. Leaf discs of maize (Zea mays) are sprayed with an active ingredient formulation of the desired concentration and, after drying, populated with caterpillars of the fall armyworm (Spodoptera frugiperda). After 7 days, efficacy in % is determined. 100% means that all the caterpillars have been killed; 0% means that no caterpillar has been killed.

[4] = tested on: Nezara viridula; experiment: Nezara viridula spray test (plants sprayed, then infected); assay type: in vivo; conditions: 500 g/ha, barley plants, after 4 days
Description: (§1) Nezara viridula—Spray Test Solvent: 78.0 parts by weight of acetone • • 1.5 parts by weight of dimethylformamide Emulsifier: alkylaryl polyglycol ether An appropriate active ingredient formulation is produced by dissolving 1 part by weight of active ingredient with the stated parts by weight of solvent and making the solution up to the desired concentration with water containing an emulsifier concentration of 1000 ppm. Further test concentrations are produced by diluting the formulation with emulsifier-containing water. Barley plants (Hordeum vulgare) are sprayed with an active ingredient formulation of the desired concentration and are infected with larvae of the Southern green shield bug (Nezara viridula). After 4 days, efficacy in % is determined. 100% means that all of the shield bugs have been killed; 0% means that none of the shield bugs have been killed.

[5] = log P by HPLC on reversed-phase column (C18); assay type: physicochemical; conditions: LC-UV
Procedure: log P Values The log P values were determined according to EEC Directive 79/831 Annex V.A8 by HPLC (high-performance liquid chromatography) on a reversed-phase column (C18) using the following methods: ^[a] […] Calibration was carried out using straight-chain alkan-2-ones (having 3 to 16 carbon atoms) with known log P values. The values between successive alkanones are determined by linear regression.

[6] = tested on: Nezara viridula; experiment: Nezara viridula spray test (infected barley plants sprayed); assay type: in vivo; conditions: 100 g ai/ha, after 4 days
Description: as §1, with “52.5” for “78.0”, “7” for “• 1.5”, “water. If the addition of ammonium salts or/and penetrants is required, these are each added in a concentration of 1000 ppm to the formulation solution.” for “water.”, “vulgare) infected with larvae of the Southern green shield bug (Nezara viridula)” for “vulgare)”, “concentration.” for “concentration and are infected with larvae of the Southern green shield bug (Nezara viridula).”

[7] = tested on: Myzus persicae; experiment: Myzus persicae oral test; assay type: in vivo; conditions: 4 ppm, after 5 days
Procedure: Myzus persicae—Oral Test Solvent: 100 parts by weight of acetone An appropriate active ingredient formulation is produced by dissolving 1 part by weight of active ingredient with the specified parts by weight of solvent and making the solution up to the desired concentration with water. 50 μl of the active ingredient formulation is transferred into microtitre plates and made up to a final volume of 200 μl with 150 μl of IPL41 insect medium (33%+15% sugar). Subsequently, the plates are sealed with parafilm, which a mixed population of green peach aphids (Myzus persicae) within a second microtitre plate is able to puncture and imbibe the solution. After 5 days, efficacy in % is determined. 100% means that all the aphids have been killed; 0% means that no aphids have been killed.

[8] = neutral range, ammonium acetate/acetonitrile, read-out: log P (neutral)

| Structure (SMILES) | pest or weed control at 100 g/ha ([1]; 100 g/ha (=32 μg/cavity)) [%] | pest or weed control at 20 ppm [2] [%] | pest or weed control at 100 g/ha [3] [%] | further results |
| --- | --- | --- | --- | --- |
| CCS(=O)(=O)c1ccc(-n2ncn(-c3ccc(F)cc3)c2=O)nc1-c1nc2cc(C(F)(F)C(F)(F)F)nnc2n1C [Example I-10] | 100 | 100 | 100 |  |
| CCS(=O)(=O)c1ccc(-n2ncn(-c3ccc(I)cc3)c2=O)nc1-c1nc2cc(C(F)(F)C(F)(F)F)nnc2n1C [Example I-09] | 100 | 90 | 100 |  |
| CCS(=O)(=O)c1ccc(-n2ncn(-c3ccc(Cl)c(C#N)c3)c2=O)nc1-c1nc2cc(C(F)(F)C(F)(F)F)cnc2n1C [Example I-07] | 100 | 100 | 100 | efficacy [4]: 100% |
| Cn1c(-c2nc(F)ccc2F)nc2cc(C(F)(F)C(F)(F)F)cnc21 [2-(3,6-Difluoro-2-pyridyl)-3-methyl-6-(1,1,2,2,2-pentafluoroethyl)imidazo[4,5-b]pyridine] |  |  |  | chromatographic logP [5, 8]: 3.3 |
| CCS(=O)(=O)c1ccc(-n2ncn(-c3cccc(Br)c3)c2=O)nc1-c1nc2cc(C(F)(F)C(F)(F)F)nnc2n1C [Example I-11] | 100 | 100 |  | efficacy ([3]; 100 g/ha): 100%; efficacy [6]: 90% |
| CCS(=O)(=O)c1ccc(-n2ncn(-c3ccc(I)cc3)c2=O)nc1-c1nc2cc(C(F)(F)C(F)(F)F)cnc2n1C [Example I-20] |  | 90 | 100 | pest or weed control at 125 g/ha [1]: 100%; efficacy [6]: 100% |
| CCS(=O)(=O)c1ccc(-n2ncn(-c3cccc(Cl)c3)c2=O)nc1-c1nc2cc(C(F)(F)C(F)(F)F)nnc2n1C [Example I-13] | 100 |  | 100 | efficacy [6]: 100% |
| CCS(=O)(=O)c1ccc(-n2ncn(-c3cccc(Cl)c3)c2=O)nc1-c1nc2cc(C(F)(F)C(F)(F)F)cnc2n1C [Example I-19] | 100 |  | 100 |  |
| CCS(=O)(=O)c1ccc(-n2ncn(-c3cccc(I)c3)c2=O)nc1-c1nc2cc(C(F)(F)C(F)(F)F)cnc2n1C [Example I-18] | 100 |  | 100 | efficacy [6]: 90% |
| CCS(=O)(=O)c1ccc(-n2ncn(-c3ccc(C#N)c(Cl)c3)c2=O)nc1-c1nc2cc(C(F)(F)C(F)(F)F)cnc2n1C [Example I-17] | 100 | 90 | 100 | efficacy [7]: 90% |
| CCS(=O)(=O)c1ccc(-n2ncn(-c3cccc(C4(C#N)CC4)c3)c2=O)nc1-c1nc2cc(C(F)(F)C(F)(F)F)nnc2n1C [Example I-01] | 100 |  | 100 |  |
| CCS(=O)(=O)c1ccc(-n2ncn(-c3ccc(C4(C#N)CC4)cc3)c2=O)nc1-c1nc2cc(C(F)(F)C(F)(F)F)nnc2n1C [Example I-21] |  | 90 | 100 | pest or weed control at 125 g/ha [1]: 100%; efficacy [7]: 100% |
| CCS(=O)(=O)c1ccc(-n2ncn(-c3cccc(F)c3)c2=O)nc1-c1nc2cc(C(F)(F)C(F)(F)F)cnc2n1C [Example I-16] | 100 | 100 | 100 |  |
| CCSc1ccc(F)nc1-c1nc2cc(C(F)(F)C(F)(F)F)cnc2n1C [2-(3-Ethylsulfanyl-6-fluoro-2-pyridyl)-3-methyl-6-(1,1,2,2,2-pentafluoroethyl)imidazo[4,5-b]pyridine] |  |  |  | chromatographic logP ([5]; acidic range, formic acid/acetonitrile, read-out: log P (acidic)): 4.05 |
| CCS(=O)(=O)c1ccc(-n2ncn(-c3ccc(/C=N/OC)cc3)c2=O)nc1-c1nc2cc(C(F)(F)C(F)(F)F)cnc2n1C [Example I-24] | 100 |  | 100 |  |
| CCS(=O)(=O)c1ccc(-n2ncn(-c3ccc(Cl)c(C#N)c3)c2=O)nc1-c1nc2cc(C(F)(F)C(F)(F)F)nnc2n1C [Example I-08] | 100 | 100 | 100 |  |
| CCS(=O)(=O)c1ccc(-n2ncn(-c3cccc(Br)c3)c2=O)nc1-c1nc2cc(C(F)(F)C(F)(F)F)nnc2n1C [Example I-15] |  |  | 100 | efficacy ([1]; 100 g/ha (=32 μg/cavity)): 100%; nematicidal efficacy ([2]; 20 ppm): 100%; efficacy [6]: 100% |
| CCS(=O)(=O)c1ccc(-n2ncn(-c3cccc(C4(C#N)CC4)c3)c2=O)nc1-c1nc2cc(C(F)(F)C(F)(F)F)cnc2n1C [Example I-04] | 100 |  | 100 | efficacy [4]: 100% |
| CCS(=O)(=O)c1ccc(-n2ncn(-c3ccc(C#N)c(Cl)c3)c2=O)nc1-c1nc2cc(C(F)(F)C(F)(F)F)nnc2n1C [Example I-05] | 100 | 100 | 100 |  |
| CCS(=O)(=O)c1ccc(F)nc1-c1nc2cc(C(F)(F)C(F)(F)F)cnc2n1C [2-(3-Ethylsulfonyl-6-fluoro-2-pyridyl)-3-methyl-6-(1,1,2,2,2-pentafluoroethyl)imidazo[4,5-b]pyridine] |  |  |  | chromatographic logP [5, 8]: 3.33 |
